Results on 16 molecules are retold here after US20260070902A1, “SULFONYL DERIVATIVES AS CCR6 INHIBITORS” (Hoffmann-La Roche Inc., priority 2022, published 2026).

Structures are written as SMILES.

The term IC50 denotes the concentration that gives 50% inhibition. Higher therefore signals a need for much substance.

Type in all cases: cell-based
Assay [1] concerns Human CD4+ T cells. As to the kind of experiment: CD4+ T cells chemotaxis assay towards CCL20. The conditions noted are these: Homo sapiens, CD4+ T cell, 3 h, relative -Log IC50, human CD4+ T cells stimulated with anti-CD3 and anti-CD28, migration towards 150 ng/ml CCL20. The text has this:
CD4+ T Cells Chemotaxis Assay Towards CCL20
Human CD4+ T cells were isolated from buffy coats of healthy donors using a CD4+ T Cell Isolation Kit (Miltenyi Biotec130-096-533). Isolated T cells were stimulated overnight with anti-CD3 and anti-CD28 antibodies (Biolegend 300314/302934) in growth medium (RPMI1640, 10% heat-inactivated FBS, 1× pen/strep (Gibco 15140)). For the chemotaxis assay, Corning Transwell plates were used with a pore size of 5 m (Corning 3388). T cells were counted and diluted to 6*10^6 cells/ml in chemotaxis medium (RPMI1640, 1% BSA, pen/strep). Compounds were four-fold serially diluted in DMSO. Further dilutions were made in chemotaxis medium. Cells were incubated with test compounds for 30 min at 37° C. prior to initiation of the assay (3*10^6 cells/ml). Final DMSO concentration in the assay was 0.2%. Wells of the Transwell plates were filled with 200 μl chemotaxis medium containing 150 ng/ml CCL20 (R&D systems 360-MP). 50 μl of the cell/compound suspension was added to the inserts of the Transwell plates (150,000 cells/insert). The Transwell plates were placed in an incubator at 37° C., 5% CO2 for 3 h. After 3 h, the number of migrated cells was quantified using CellTiter Glo (Promega). Percentage inhibition values were calculated based on the low and high signal obtained with 0.2% DMSO in chemotaxis medium without and with CCL20, respectively. The relative −Log IC50 was determined with GraphPad Prism 9 using a four-parameter dose-response model.

The target of assay [2] is T1, human CCR6 (Homo sapiens, UniProt P51684).
T1 sequence (P51684 1-374): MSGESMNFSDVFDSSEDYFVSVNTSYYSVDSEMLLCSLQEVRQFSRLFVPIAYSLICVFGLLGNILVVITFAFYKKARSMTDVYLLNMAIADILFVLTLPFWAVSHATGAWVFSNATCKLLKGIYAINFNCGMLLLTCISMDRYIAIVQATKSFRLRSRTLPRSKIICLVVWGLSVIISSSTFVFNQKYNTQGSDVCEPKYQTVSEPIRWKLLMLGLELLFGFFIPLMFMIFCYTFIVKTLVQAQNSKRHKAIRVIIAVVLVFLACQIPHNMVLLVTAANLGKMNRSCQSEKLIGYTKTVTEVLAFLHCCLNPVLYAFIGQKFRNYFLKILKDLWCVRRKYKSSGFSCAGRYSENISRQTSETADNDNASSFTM
As to the kind of experiment: Human CCR6-CRE reporter assay. Set-up: The second construct contained the open reading frame of human CCR6 in the pUNO1 backbone; host or cells: 293FT cells. To be noted: relative -Log IC50; 293FT cells transfected with human CCR6 and CRE-luciferase reporter; 6 μM Forskolin, 6 nM CCL20; 5 h. The gist of the method: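 293FT cells transiently co-transfected with human CCR6 and a CRE-luc2P reporter, used 48 h later. Compounds incubated with cells in medium containing 6 μM Forskolin and 6 nM CCL20 (assay-medium levels), 0.1% DMSO final, 5 h at 37° C; luminescence read, relative −Log IC50 from four-parameter fit.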
(In a reporter assay the amount or activity of a reporter protein is the signal.)

Assay [3] concerns the target T1, human CCR6. As to the kind of experiment: CHO-K1 CCR6 chemotaxis assay towards CCL20. To be noted: relative -Log IC50; CHO-K1 cells overexpressing human CCR6; migration towards 100 ng/ml CCL20; 4 h. The gist of the method: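 Human CCR6-overexpressing CHO-K1 cells (2*10^6 cells/ml) were preincubated 30 min at 37 °C with compound (0.2% DMSO), then allowed to migrate 4 h through 8 µm Transwell pores toward 100 ng/ml CCL20. Migrated cells were counted by CellTiter Glo. −Log IC50 came from four-parameter fits normalised to DMSO without/with CCL20.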

Take `Cc1nnc2ccc(-c3ccc(S(=O)(=O)[C@H]4CC[C@H](Nc5ccc(S(F)(F)(F)(F)F)cc5)CC4)cc3)cn12` [Example 11, 4-(pentafluoro-λ^6-sulfanyl)-N-[trans-4-(4-{3-methyl-[1,2,4]triazolo[4,3-a]pyridin-6-yl}benzenesulfonyl)cyclohexyl]aniline]: the IC50 was 3.98 nM in assay [1], 100 nM in assay [2] and 25.1 nM in assay [3].

Consider `O=S(=O)(c1ccc(-c2ccc3nccn3c2)cc1)[C@H]1CC[C@@H](Nc2ccc(S(F)(F)(F)(F)F)cc2)CC1` [Example 18, 4-(pentafluoro-λ^6-sulfanyl)-N-[cis-4-(4-{imidazo[1,2-a]pyridin-6-yl}benzenesulfonyl)cyclohexyl]aniline], for which the concentration for half-maximal inhibition (IC50) is 6.31 nM in assay [1], 158 nM in assay [2] and 200 nM in assay [3].

Take `CN(C)C(=O)c1ccc(-c2ccc(S(=O)(=O)[C@H]3CC[C@H](Nc4ccc(S(F)(F)(F)(F)F)cc4)CC3)cc2)cn1` [Example 20, N,N-dimethyl-5-(4-{[trans-4-{[4-(pentafluoro-λ^6-sulfanyl)phenyl]Amino}cyclohexyl]sulfonyl}phenyl)pyridine-2-carboxamide]: the IC50 in assay [1] was 31.6 nM; in assay [2], 100 nM; in assay [3], 398 nM.

As for `NC(=O)c1nnc2ccc(-c3ccc(S(=O)(=O)N4CCC(Nc5ccc(S(F)(F)(F)(F)F)cc5)CC4)cc3)cn12` [Example 26, 6-{4-[(4-{[4-(pentafluoro-λ^6-sulfanyl)phenyl]Amino}piperidin-1-yl)sulfonyl]phenyl}-[1,2,4]triazolo[4,3-a]pyridine-3-carboxamide], the values for the IC50 in assay [1], in assay [2] and in assay [3] were 15.8 nM, 50.1 nM and 100 nM, respectively.

Turning to `Cc1nnc2ccc(-c3ccc(S(=O)(=O)N4CCC(Nc5ccc(S(F)(F)(F)(F)F)cc5)CC4)cc3)cn12` [Example 27, 1-(4-{3-methyl-[1,2,4]triazolo[4,3-a]pyridin-6-yl}benzenesulfonyl)-N-[4-(pentafluoro-λ^6-sulfanyl)phenyl]piperidin-4-amine], the IC50 in assay [1] was 5.01 nM; in assay [2], 63.1 nM; in assay [3], 63.1 nM.

For the molecule `NC(=O)c1cnc2ccc(-c3ccc(S(=O)(=O)[C@H]4CC[C@H](Nc5ccc(S(F)(F)(F)(F)F)cc5)CC4)cc3)cn12` [Example 34, 6-(4-{[trans-4-{[4-(pentafluoro-λ^6-sulfanyl)phenyl]Amino}cyclohexyl]sulfonyl}phenyl)imidazo[1,2-a]pyridine-3-carboxamide], the IC50 in assay [1] was 63.1 nM; in assay [2], 200 nM; in assay [3] it was 39.8 nM.

Regarding `CC(C)c1nnc2ccc(-c3ccc(S(=O)(=O)[C@H]4CC[C@H](Nc5ccc(S(F)(F)(F)(F)F)cc5)CC4)cc3)cn12` [Example 35, 4-(pentafluoro-λ^6-sulfanyl)-N-[trans-4-{4-[3-(propan-2-yl)-[1,2,4]triazolo[4,3-a]pyridin-6-yl]benzenesulfonyl}cyclohexyl]aniline], the IC50 in assay [1] is 0.501 nM; in assay [2], 79.4 nM; in assay [3] it was 3.98 nM.

For the molecule `Cc1nc2cc(-c3ccc(S(=O)(=O)[C@H]4CC[C@H](Nc5ccc(S(F)(F)(F)(F)F)cc5)CC4)cc3)ccn2n1` [Example 41, 4-(pentafluoro-λ^6-sulfanyl)-N-[trans-4-(4-{2-methyl-[1,2,4]triazolo[1,5-a]pyridin-7-yl}benzenesulfonyl)cyclohexyl]aniline], the IC50 was 5.01 nM in assay [1], 158 nM in assay [2] and 79.4 nM in assay [3].

Take `CC(C)c1nnc2ccc(-c3ccc(S(=O)(=O)[C@H]4CC[C@H](Nc5ccc(S(F)(F)(F)(F)F)cc5)CC4)cc3)nn12` [Example 50, 4-(pentafluoro-λ^6-sulfanyl)-N-[trans-4-{4-[3-(propan-2-yl)-[1,2,4]triazolo[4,3-b]pyridazin-6-yl]benzenesulfonyl}cyclohexyl]aniline]: the values for the IC50 in assay [1], in assay [2] and in assay [3] were 25.1 nM, 126 nM and 100 nM, respectively.

With `CC(C)c1nnc2cnc(-c3ccc(S(=O)(=O)[C@H]4CC[C@H](Nc5ccc(S(F)(F)(F)(F)F)cc5)CC4)cc3)cn12` [Example 51, 4-(pentafluoro-λ^6-sulfanyl)-N-[trans-4-{4-[3-(propan-2-yl)-[1,2,4]triazolo[4,3-a]pyrazin-6-yl]benzenesulfonyl}cyclohexyl]aniline], the values for the IC50 in assay [1], in assay [2] and in assay [3] were 2 nM, 63.1 nM and 7.94 nM, respectively.

For the molecule `N#Cc1c[nH]c2ccc(-c3ccc(S(=N)(=O)[C@H]4CC[C@H](Nc5ccc(S(F)(F)(F)(F)F)cc5)CC4)cc3)cc12` (stereo partly drawn) [Example 85, 5-(4-{[trans-4-{[4-(pentafluoro-λ^6-sulfanyl)phenyl]Amino}cyclohexyl]sulfonimidoyl}phenyl)-1H-indole-3-carbonitrile], the IC50 in assay [1] was 25.1 nM; in assay [2], 100 nM; in assay [3], 126 nM.

Regarding `Cc1n[nH]c2ccc(-c3ccc(S(=N)(=O)[C@H]4CC[C@H](Nc5ccc(S(F)(F)(F)(F)F)cc5)CC4)cc3)cc12` (stereo partly drawn) [Example 86, [4-(3-methyl-1H-indazol-5-yl)phenyl][trans-4-{[4-(pentafluoro-λ^6-sulfanyl)phenyl]Amino}cyclohexyl](imino)-λ^6-sulfanone], the IC50 in assay [1] is 79.4 nM; in assay [2], 126 nM; in assay [3], 79.4 nM.

Turning to `N=S(=O)(c1ccc(-c2ccc3nccn3c2)cc1)[C@H]1CC[C@H](Nc2ccc(S(F)(F)(F)(F)F)cc2)CC1` (stereo partly drawn) [Example 87, (4-{imidazo[1,2-a]pyridin-6-yl}phenyl)[trans-4-{[4-(pentafluoro-λ^6-sulfanyl)phenyl]Amino}cyclohexyl](imino)-λ^6-sulfanone], the IC50 is 158 nM in assay [1], 200 nM in assay [2] and 126 nM in assay [3].

As for `Cc1cnc2ccc(-c3ccc(S(=N)(=O)[C@H]4CC[C@H](Nc5ccc(S(F)(F)(F)(F)F)cc5)CC4)cc3)cn12` (stereo partly drawn) [Example 89, (4-{3-methylimidazo[1,2-a]pyridin-6-yl}phenyl)[trans-4-{[4-(pentafluoro-λ^6-sulfanyl)phenyl]Amino}cyclohexyl](imino)-λ^6-sulfanone], the figures for the IC50 in assay [1], in assay [2] and in assay [3] were 39.8 nM, 158 nM and 79.4 nM, respectively.

Consider `N#Cc1cnc2ccc(-c3ccc(S(=N)(=O)[C@H]4CC[C@H](Nc5ccc(S(F)(F)(F)(F)F)cc5)CC4)cc3)cn12` (stereo partly drawn) [Example 90, 6-(4-{[trans-4-{[4-(pentafluoro-λ^6-sulfanyl)phenyl]Amino}cyclohexyl]sulfonimidoyl}phenyl)imidazo[1,2-a]pyridine-3-carbonitrile], for which the IC50 is 25.1 nM in assay [1], 158 nM in assay [2] and 63.1 nM in assay [3].

As for `CC(C)c1nnc2cnc(-c3ccc(S(=N)(=O)[C@H]4CC[C@H](Nc5ccc(S(F)(F)(F)(F)F)cc5)CC4)cc3)cn12` (stereo partly drawn) [Example 162, {4-[3-(propan-2-yl)-[1,2,4]triazolo[4,3-a]pyrazin-6-yl]phenyl}[trans-4-{[4-(pentafluoro-λ^6-sulfanyl)phenyl]amino}cyclohexyl](imino)-λ^6-sulfanone], the values for the IC50 in assay [1], in assay [2] and in assay [3] were 79.4 nM, 100 nM and 63.1 nM, respectively.
